Reference: patent publication US12227488B2, “Small molecule degraders of Helios and methods of use” (DANA-FARBER CANCER INSTITUTE, INC., priority 2018, dated 2025)

Tests used:
CRBN and Helios (IKZF2) = target: T1, CRBN and Helios (IKZF2) (Homo sapiens, UniProt Q96SW2+Q9UKS7); test: TR-FRET dimerization assay (CRBN-IKZF2 ternary complex formation); format: binding; conditions: n=1
T1 construct: His (N); Strep (N)
Experimental: A focused library of imide analogs was synthesized and assessed for their ability to induce dimerization between CRBN and Helios in a time-resolved fluorescence energy transfer (TR-FRET) assay (FIG. 1A).
Prior to TR-FRET measurements being conducted, the reactions were incubated for 15 min at rt. […] The TR-FRET signal of each data point was extracted by calculating the 520/490 nm ratios. Data from single measurements (n=1), each calculated as an average of at least three technical replicates per well per experiment are presented in Table 1.
BODIPY-labeled CRBN in complex with Damage Specific DNA Binding Protein 1 (DDB1) harboring an internal deletion of the flexible BPB propeller (DDB1AB-CRBN) and in vitro biotinylated IKZF2 were treated with increasing concentrations of the indicated compounds in the presence of tracer amounts of Terbium-Streptavidin (Tb-SA). Compound-induced recruitment of IKZF2 to CRBN was quantified following the 520/490 TR-FRET ratio using a PHERAstar® plate reader (BMG) utilizing two synchronized PMTs to reduce background.

IKZF2 = test: Cellular degradation assay, eGFP-IKZF2Δ fusion with mCherry reporter in Flp-In 293 cells; format: cell-based; conditions: 5 h incubation, n=1
Experimental: (§1) IKZF1Δ, IKZF2Δ, GSPT1 and SALL4 ZnF1-2 were subcloned into mammalian pcDNA5/FRT Vector (Ampicillin and Hygromycin B resistant) modified to contain MCS-eGFP-P2A-mCherry. […] Following 2-3 passage cycle, FACS (FACSAria™ II, BD) was used to enrich for cells expressing eGFP and mCherry. Cells stably expressing the IKZF1Δ, IKZF2Δ, GSPT1 or SALL4 Znf1-2 GFP fusions with mCherry reporter were seeded at 30-50% confluency in 384-well plates with 50 μL FluoroBrite™ DMEM media (Thermo Fisher Scientific, A18967) containing 10% FBS per well a day before compound treatment. Compound titrations were dispensed using a D300e Digital Dispenser (HP), normalized to 0.5% DMSO, and incubated with cells for 5 hours.
(§2) The resulting images were analyzed using CellProfiler™. A series of image analysis steps (‘image analysis pipeline’) was constructed. First, the red and green channels were aligned and cropped to target the middle of each well (to avoid analysis of heavily clumped cells at the edges), and a background illumination function was calculated for both red and green channels of each well individually and subtracted to correct for illumination variations across the 384-well plate from various sources of error. An additional step was then applied to the green channel to suppress the analysis of large auto fluorescent artifacts and enhance the analysis of cell specific fluorescence by way of selecting for objects under a given size, 30 A.U., and with a given shape, speckles. mCherry-positive cells were then identified in the red channel filtering for objects between 8-60 pixels in diameter and using intensity to distinguish between clumped objects. The green channel was then segmented into GFP positive and negative areas and objects were labeled as GFP positive if at least 40% of it overlapped with a GFP positive area. The fraction of GFP-positive cells/mCherry-positive cells in each well was then calculated, and the green and red images were rescaled for visualization.
(§3) The degradation assay was performed as described above. […] Degradation was measured after 5 h of compound treatment and the concentrations that lead to half degradation at 5 h (DC50,5 h) were calculated using the nonlinear fit variable slope model (GraphPad Software).

IKZF1 = target: T2, IKZF1 (Homo sapiens, UniProt Q13422); test: Cellular degradation assay, eGFP-IKZF1Δ fusion with mCherry reporter in Flp-In 293 cells; format: cell-based; conditions: 5 h incubation, n=1
T2 construct: expressed in transfected cells; host or cells: Flp-In 293
Experimental: as §1, §2, §3

[1] = compound concentration 6.6667E−05
[2] = compound concentration 6.6667E−06
[3] = compound concentration 6.6667E−07 (667 nM)
[4] = compound concentration 2.00E−05
[5] = compound concentration 2.00E−06
[6] = compound concentration 2.00E−07

T2 sequence (Q13422 83-213 isoform Q13422-7 limits assumed): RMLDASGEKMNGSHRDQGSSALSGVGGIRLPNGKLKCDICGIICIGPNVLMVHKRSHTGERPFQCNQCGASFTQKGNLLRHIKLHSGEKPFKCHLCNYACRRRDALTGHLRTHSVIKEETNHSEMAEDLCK
T2 sequence (Q96SW2 whole entry partner, the tested form may be a part): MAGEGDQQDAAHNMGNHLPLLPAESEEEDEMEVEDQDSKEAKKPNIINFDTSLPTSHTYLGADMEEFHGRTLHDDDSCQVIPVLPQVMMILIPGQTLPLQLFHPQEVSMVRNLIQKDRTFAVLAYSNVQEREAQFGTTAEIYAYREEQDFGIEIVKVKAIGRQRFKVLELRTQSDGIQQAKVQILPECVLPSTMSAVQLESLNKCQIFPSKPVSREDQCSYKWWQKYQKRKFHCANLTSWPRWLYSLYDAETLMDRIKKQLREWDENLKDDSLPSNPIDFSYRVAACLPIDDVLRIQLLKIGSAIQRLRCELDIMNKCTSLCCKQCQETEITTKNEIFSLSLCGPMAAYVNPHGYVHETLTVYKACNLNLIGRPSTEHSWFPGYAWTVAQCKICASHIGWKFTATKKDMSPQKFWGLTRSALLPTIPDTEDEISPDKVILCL
T2 sequence (Q16531 2-1140 partner limits assumed): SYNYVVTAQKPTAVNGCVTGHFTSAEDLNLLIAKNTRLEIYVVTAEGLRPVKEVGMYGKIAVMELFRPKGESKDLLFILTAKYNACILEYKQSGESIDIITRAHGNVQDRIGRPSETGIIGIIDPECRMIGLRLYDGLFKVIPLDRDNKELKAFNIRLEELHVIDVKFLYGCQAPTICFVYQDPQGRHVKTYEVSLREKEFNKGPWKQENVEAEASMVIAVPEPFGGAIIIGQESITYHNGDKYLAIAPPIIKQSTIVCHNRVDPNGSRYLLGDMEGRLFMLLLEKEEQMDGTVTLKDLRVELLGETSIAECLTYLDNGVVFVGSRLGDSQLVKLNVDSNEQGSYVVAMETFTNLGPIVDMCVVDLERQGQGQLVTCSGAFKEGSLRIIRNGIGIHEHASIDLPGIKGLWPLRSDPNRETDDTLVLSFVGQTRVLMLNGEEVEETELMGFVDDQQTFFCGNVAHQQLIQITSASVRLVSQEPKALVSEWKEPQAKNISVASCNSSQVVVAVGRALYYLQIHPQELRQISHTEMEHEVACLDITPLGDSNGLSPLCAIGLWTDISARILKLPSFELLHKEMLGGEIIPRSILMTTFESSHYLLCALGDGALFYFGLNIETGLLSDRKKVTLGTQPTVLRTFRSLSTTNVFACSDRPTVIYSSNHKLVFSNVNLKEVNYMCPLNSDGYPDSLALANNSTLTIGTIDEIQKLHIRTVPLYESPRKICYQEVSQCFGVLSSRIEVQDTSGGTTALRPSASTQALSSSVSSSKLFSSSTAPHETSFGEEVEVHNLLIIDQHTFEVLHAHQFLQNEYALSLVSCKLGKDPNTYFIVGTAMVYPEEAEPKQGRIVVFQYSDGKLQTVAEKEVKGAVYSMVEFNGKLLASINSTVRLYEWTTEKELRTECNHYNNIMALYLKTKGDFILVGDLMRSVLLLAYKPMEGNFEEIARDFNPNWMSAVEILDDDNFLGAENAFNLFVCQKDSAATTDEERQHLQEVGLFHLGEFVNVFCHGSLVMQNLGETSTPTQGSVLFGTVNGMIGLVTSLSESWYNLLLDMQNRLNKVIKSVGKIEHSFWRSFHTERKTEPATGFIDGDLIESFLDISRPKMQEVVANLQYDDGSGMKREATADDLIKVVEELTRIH
T1 sequence (Q96SW2 whole entry): as the sequence (Q96SW2 whole entry partner, the tested form may be a part) above
T1 sequence (Q9UKS7 whole entry): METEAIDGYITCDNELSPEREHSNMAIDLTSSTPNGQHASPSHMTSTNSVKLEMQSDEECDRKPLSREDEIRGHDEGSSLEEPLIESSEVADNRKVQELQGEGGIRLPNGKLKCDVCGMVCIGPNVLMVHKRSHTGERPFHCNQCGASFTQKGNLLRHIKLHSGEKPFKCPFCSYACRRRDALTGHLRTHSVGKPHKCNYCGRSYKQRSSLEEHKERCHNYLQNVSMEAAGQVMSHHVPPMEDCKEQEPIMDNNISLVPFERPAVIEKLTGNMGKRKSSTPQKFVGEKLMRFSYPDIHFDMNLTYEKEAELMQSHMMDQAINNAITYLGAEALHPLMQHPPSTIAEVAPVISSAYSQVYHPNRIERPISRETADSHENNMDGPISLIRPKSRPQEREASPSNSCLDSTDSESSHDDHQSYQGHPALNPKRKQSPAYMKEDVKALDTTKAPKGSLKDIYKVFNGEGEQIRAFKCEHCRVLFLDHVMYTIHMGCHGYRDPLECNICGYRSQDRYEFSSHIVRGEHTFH

Row | SMILES | TR-FRET-IKZF2 (Normalized to CC-885) (CRBN and Helios (IKZF2); [1]) | TR-FRET-IKZF2 (Normalized to CC-885) (CRBN and Helios (IKZF2); [2]) | TR-FRET-IKZF2 (Normalized to CC-885) (CRBN and Helios (IKZF2); [3]) | IKZF2 GFP/RFP Relative Abundance (IKZF2; [4]) | IKZF2 GFP/RFP Relative Abundance (IKZF2; [5]) | IKZF2 GFP/RFP Relative Abundance (IKZF2; [6]) | IKZF1 GFP/RFP Relative Abundance (IKZF1; [4]) | IKZF1 GFP/RFP Relative Abundance (IKZF1; [5]) | IKZF1 GFP/RFP Relative Abundance (IKZF1; [6])
1 | Cc1ccc(NC(=O)OCCc2cccc(NC3=CC(=O)N(C4CCC(=O)NC4=O)C3=O)c2)cc1Cl (stereo not drawn) [Compound 110, 3-((1-(2,6-dioxopiperidin-3-yl)-2,5-dioxo-2,5-dihydro-1H-pyrrol-3-yl)amino)phenethyl (3-chloro-4-methylphenyl)carbamate] | 1.017 | 1.086 | 0.853 | 0.048 | 0.048 | 0.038 | 0.096 | 0.066 | 0.086
2 | Cc1ccc(NC(=O)NCc2cc(NC(=O)N(C)C)cc(NC3=CC(=O)N(C4CCC(=O)NC4=O)C3=O)c2)cc1Cl (stereo not drawn) [Compound 112, 3-(3-((3-(3-chloro-4-methylphenyl)ureido)methyl)-5-((1-(2,6-dioxopiperidin-3-yl)-2,5-dioxo-2,5-dihydro-1H-pyrrol-3-yl)amino)phenyl)-1,1-dimethylurea] | 0.048 | 0.035 | 0.035 | 1.081 | 1.047 | 1.034 | 0.726 | 0.949 | 1.002
3 | O=C1CCC(N2C(=O)C=C(Nc3cccc(CNC(=O)Nc4ccccc4)c3)C2=O)C(=O)N1 (stereo not drawn) [Compound 119, 1-(3-((1-(2,6-dioxopiperidin-3-yl)-2,5-dioxo-2,5-dihydro-1H-pyrrol-3-yl)amino)benzyl)-3-phenylurea] | 0.817 | 0.671 | 0.629 | 0.392 | 0.516 | 0.544 | 0.055 | 0.079 | 0.101
4 | Cc1cc(CNC(=O)NC(C)c2cccc(NC3=CC(=O)N(C4CCC(=O)NC4=O)C3=O)c2)ccc1Cl (stereo not drawn) [Compound 120, 1-(4-chloro-3-methylbenzyl)-3-(1-(3-((1-(2,6-dioxopiperidin-3-yl)-2,5-dioxo-2,5-dihydro-1H-pyrrol-3-yl)amino)phenyl)ethyl)urea] | 1.263 | 1.011 | 0.860 | 0.077 | 0.117 | 0.157 | 0.094 | 0.110 | 0.092
5 | Cc1ccc(CNC(=O)CCc2cccc(NC3=CC(=O)N(C4CCC(=O)NC4=O)C3=O)c2)cc1Cl (stereo not drawn) [Compound 121, N-(3-chloro-4-methylbenzyl)-3-(3-((1-(2,6-dioxopiperidin-3-yl)-2,5-dioxo-2,5-dihydro-1H-pyrrol-3-yl)amino)phenyl)propanamide] | 1.521 | 1.376 | 1.357 | 0.071 | 0.087 | 0.051 | 0.125 | 0.093 | 0.120
